Experimental data taken from PubChem BioAssay (NCI).
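Cells were grown in 96-well plates and exposed to each compound for 48 hours at five concentrations; endpoints were interpolated linearly between bracketing concentrations, or set to the highest concentration if not reached. GI50: concentration for 50% inhibition of growth. TGI is the concentration that stops growth completely.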

How the values were obtained:
Experiment in all cases: inhibition of tumour cell growth, NCI panel, 48 h
CAKI-1 renal = system: CAKI-1 renal
K-562 leukemia = system: K-562 leukemia
IGROV1 ovarian = system: IGROV1 ovarian
SK-MEL-28 melanoma = system: SK-MEL-28 melanoma
ACHN renal = system: ACHN renal
T-47D breast = system: T-47D breast
CCRF-CEM leukemia = system: CCRF-CEM leukemia
SK-MEL-2 melanoma = system: SK-MEL-2 melanoma
TK-10 renal = system: TK-10 renal
UO-31 renal = system: UO-31 renal

| SMILES | TGI (CAKI-1 renal) [µM] | TGI (K-562 leukemia) [µM] | TGI (IGROV1 ovarian) [µM] | TGI (SK-MEL-28 melanoma) [µM] | TGI (ACHN renal) [µM] | TGI (T-47D breast) [µM] | TGI (CCRF-CEM leukemia) [µM] | TGI (SK-MEL-2 melanoma) [µM] | TGI (TK-10 renal) [µM] | TGI (UO-31 renal) [µM] | GI50 (K-562 leukemia) [µM] | GI50 (SK-MEL-28 melanoma) [µM] | GI50 (ACHN renal) [µM] | GI50 (CCRF-CEM leukemia) [µM] | GI50 (UO-31 renal) [µM] | GI50 (SK-MEL-2 melanoma) [µM] | GI50 (TK-10 renal) [µM] |
| --- | --- | --- | --- | --- | --- | --- | --- | --- | --- | --- | --- | --- | --- | --- | --- | --- | --- |
| N=C(N)SCc1nc(-c2ccc(Cl)cc2)no1 | 27.4 | 41.9 | > 100 | 33 | 27.5 | 29.9 | 31.8 | 41.7 | 40.8 |  |  |  |  |  |  |  |  |
| COc1ccc(C2N(c3ccc(C)c(N=C=O)c3)C(=O)N3C(c4ccc(OC)cc4)N(c4ccc(C)c(N=C=O)c4)C(=O)N23)cc1 (configuration not stated) | > 100 | > 100 | > 100 | > 100 | > 100 |  | > 100 | > 100 | > 100 | > 100 |  |  |  |  |  |  |  |
| Clc1ccc(C2SCc3nc4ccccc4n32)cc1 (configuration not stated) | 73.9 | > 100 | 55.9 | 68.1 | > 100 |  | 78.9 | 33 | > 100 | 41.7 |  |  |  |  |  |  |  |
| COc1cc2nc(-c3cccs3)nc(N3CCN(c4ccccc4)CC3)c2cc1OC | > 100 | > 100 | > 100 | > 100 | > 100 | > 100 |  | > 100 | > 100 | > 100 |  |  |  |  |  |  |  |
| CCOc1ccccc1N=NC1C(=O)N(C(=O)CC(=O)Nc2ccccc2C)N=C1C (configuration not stated) | > 100 |  | > 100 | > 100 | > 100 | > 100 | > 100 | > 100 | > 100 | 63.6 |  |  |  |  |  |  |  |
| N#Cc1sc2c(c1OC(=O)c1ccco1)c(=O)n(-c1ccccc1)c(=S)n2-c1ccccc1 | > 100 | 96 | > 10 | > 100 |  | 77.5 | > 10 | 84.2 | > 100 | 44.1 |  |  |  |  |  |  |  |
| OC(CCN1CCN(CCOC(c2ccccc2)c2ccccc2)CC1)c1ccccc1 (configuration not stated) | > 100 |  | 59.3 | 34.4 | > 100 | 48.8 | > 100 | 31.6 | 59.8 | 44 |  |  |  |  |  |  |  |
| Cc1ccc(C)n1-c1ccccc1C1C=Cn2c(=O)oc3c(OC(C)C)c(OC(C)C)c(O)c1c32 (configuration not stated) | > 100 | > 100 | > 100 | > 100 | > 100 |  | > 100 | 78.2 | > 100 | 31.9 |  |  |  |  |  |  |  |
| Cc1cc(N(CCC#N)CCC#N)ccc1/C(N=Nc1ccc(C(=O)O)cc1)=N\NC(=O)c1ccccc1 | > 100 | > 100 | > 100 |  | > 100 | > 100 | > 100 | > 100 | > 100 | > 100 |  |  |  |  |  |  |  |
| CC(=O)/C=C(/C)[O-].CC(=O)/C=C(/C)[O-].CC(=O)[CH-]C(C)=O.CC(=O)[CH-]C(C)=O.[Zr+4] |  | > 100 |  | > 100 | > 100 |  | > 100 | > 100 | > 100 | > 100 | > 100 | > 100 | > 100 | > 100 | > 100 | > 100 | > 100 |
| OCc1ccc2c(c1)CC1(Cc3ccccc3C1)C2 | 50.5 | 38.1 |  | 49.6 | 57.7 | > 100 | 54.4 |  | 61.5 | 29.1 |  |  |  |  |  |  |  |
| CCCN=C1NC(C)=CSC(Nc2ccccc2)=C1C#N | > 100 | > 100 |  | > 100 | > 100 | > 100 |  | > 100 | > 100 | > 100 |  |  |  |  |  |  |  |
| COc1ccc(/C(=N/O)c2ccccc2C2=Nc3ccccc3C(NCc3ccccc3)O2)cc1C (configuration not stated) | > 100 | 97.4 | > 100 | > 100 | > 100 |  | > 100 | > 100 |  | 67.5 |  |  |  |  |  |  |  |
| O=C1C(Cl)N(c2ccc([N+](=O)[O-])cc2)C1c1c[nH]c2ccccc12 (configuration not stated) |  | > 100 | > 100 | > 100 |  |  | > 100 | > 100 | > 100 | > 100 |  |  |  |  |  |  |  |
| CCOC(=O)c1sc2nc(SC)nc3c2c1NCN3C | > 100 |  | 39.2 | > 100 | 59.3 | 25.9 | > 100 | > 100 | > 100 | 37.6 |  |  |  |  |  |  |  |
| COC(=O)/C1=C/C=C\C[C@@]2(C)CC(c3ccoc3)OC(=O)[C@@H]2CC[C@H]1C (some centres not stated) | > 25 | > 25 | > 25 | > 25 | > 25 |  | > 25 | > 25 | > 25 | > 25 |  |  |  |  |  |  |  |
| O=C(CSc1nc2ccc(I)cc2c(=O)n1Cc1ccccc1)Nc1ccccc1 | > 100 | > 100 | > 100 | > 100 | > 100 | > 100 | > 100 | 43.3 |  | 1.55 |  |  |  |  |  |  |  |
| O=C1CCCC1CC(CN1CCOCC1)Sc1nnnn1-c1ccccc1 (configuration not stated) | 79.1 | > 100 | > 100 | > 100 | > 100 |  | > 100 | > 100 |  | > 100 |  |  |  |  |  |  |  |
| CCn1c(CCCc2nc3c([nH]2)c(=O)n(C)c(=O)n3C)nc2c1c(=O)n(C)c(=O)n2C | > 100 | > 100 | > 100 | > 100 | > 100 | > 100 | > 100 |  | > 100 | > 100 |  |  |  |  |  |  |  |
| O=C1Sc2ccccc2C(=O)N2CCSC12 (configuration not stated) |  | > 100 |  | > 100 |  |  | > 100 | > 100 | > 100 | > 100 |  |  |  |  |  |  |  |
| O=c1c(O)c(-c2ccccc2)oc2c(CP(=O)(O)O)cccc12 | > 100 | > 100 | > 100 |  |  | > 100 | > 100 | > 100 | > 100 |  |  |  |  |  |  |  |  |
| O=S(=O)(O)c1ccc(O)c(N=Nc2c(O)ccc3ccccc23)c1 | > 100 | > 100 | > 100 | > 100 |  | > 100 | 86.9 | > 100 | > 100 | > 100 |  |  |  |  |  |  |  |
